Measurements taken from patent US20250304620A1, “ANTIMICROBIAL PEPTIDE AND APPLICATION THEREOF” (priority 2023, published 2025).
Values after ≈ are worked out from the molar mass of the structure shown. Like-named read-outs stand apart in the source and are kept apart here. Non-standard residues stand in square brackets, D forms with d. Residues, ends and D or L forms follow the SMILES beside them. PEG2000 = polyethylene glycol 2000, conjugated to the N-terminus; PEG4000 = polyethylene glycol 4000, conjugated to the C-terminus; PEG200 = polyethylene glycol 200, conjugated to the C-terminus; PEG500 = polyethylene glycol 500, conjugated to the C-terminus; dPhe(4-CF3) = N[C@H](Cc1ccc(C(F)(F)F)cc1)C(=O)O; dPhe(3,4-F2) = N[C@H](Cc1ccc(F)c(F)c1)C(=O)O; 2Nal = N[C@@H](Cc1ccc2ccccc2c1)C(=O)O; d2Nal = N[C@H](Cc1ccc2ccccc2c1)C(=O)O; PEG1000 = polyethylene glycol 1000

Experiments:
[1] = test system: carbapenem-resistant Klebsiella pneumoniae (CRKP); format: cell-based
Source text: (§1) According to the Standards of Clinical and Laboratory Standards Institute (CLSI) of the USA for antimicrobial drug susceptibility test operation standards, the micronutrient serial twofold dilution method was used further determine MICs of the antimicrobial peptides LV-1 to LV-30 against 5 clinically common drug-resistant bacterial strains. The experiment was repeated 5 times in parallel. […] The tested drug-resistant strains included Methicillin-resistant Staphylococcus aureus (MRSA), carbapenem-resistant Escherichia coli (CREC), vancomycin-resistant Enterococcus (VRE), carbapenem-resistant Pseudomonas aeruginosa (CRPA), and carbapenem-resistant Klebsiella pneumoniae (CRKP).

[2] = test system: carbapenem-resistant Pseudomonas aeruginosa (CRPA); format: cell-based
Source text: as §1

[3] = test system: vancomycin-resistant Enterococcus (VRE); format: cell-based
Source text: as §1

[4] = test system: Methicillin-resistant Staphylococcus aureus (MRSA); format: cell-based
Source text: as §1

[5] = test system: carbapenem-resistant Escherichia coli (CREC); format: cell-based
Source text: as §1

[6] = test system: Shigella flexneri ATCC 12022; test: MIC against clinically common bacterial strain; format: cell-based
Source text: According to the Standards of Clinical and Laboratory Standards Institute (CLSI) of the USA for antimicrobial drug susceptibility test operation standards, the micronutrient serial twofold dilution method was used further determine MICs of 30 AMPs (S/N: LV-1 to LV-30) 10 clinically common sensitive strains and 6 fungi in clinical practice. The experiment was repeated 5 times in parallel.

[7] = test system: Methicillin-sensitive Staphylococcus aureus (NRS 384); format: in vivo, ICR mice; conditions: 0.1 mL twice a day for 4 days, mouse back skin infection
Method: (§2) Both female and male ICR mice were used in the test, half of the female and male mice were taken and randomly assigned into groups, with 10 mice in each group, and kept in separate cages. The mice were divided into a blank group, a model group, a positive control Methicillin group, and topical formulation groups of AMPs LV-1 to LV-30. Suspensions of Methicillin-sensitive Staphylococcus aureus (NRS 384) and Methicillin-resistant Staphylococcus aureus (MRSA) were prepared, and their concentrations were adjusted to a concentration of 5×10^6 CFU/mL for subsequent use. Hair on backs of the mice was shaved with a shaver, wound was created on back skin of each mouse using a biopsy punch, and the wound was then infected with Methicillin-sensitive Staphylococcus aureus and Methicillin-resistant Staphylococcus aureus (0.1 mL, 5×10^6 CFU/mL) to establish infection models. Except for the blank group and the model group, all other groups received corresponding topical formulations applied directly to the infected areas, with a dose of 0.1 mL, twice a day for 4 consecutive days. On the day following the final administration, skin from the infected sites of each group was aseptically collected, and an antibacterial rate was calculated.

[8] = test system: Methicillin-resistant Staphylococcus aureus (MRSA); format: in vivo, ICR mice; conditions: 0.1 mL twice a day for 4 days, mouse back skin infection
Method: as §2

[9] = test system: rabbit red blood cells; format: cell-based; conditions: red cells of rabbit, 1 h
[10] = Serum stability assay (residual level by RP-HPLC); conditions: human

| Compound | MIC CRKP ([1]; drug-resistant strain CRKP) [µg/mL] | MIC CRPA ([2]; drug-resistant strain CRPA) [µg/mL] | MIC VRE ([3]; drug-resistant strain VRE) [µg/mL] | MIC MRSA ([4]; drug-resistant strain MRSA) [µg/mL] | MIC CREC ([5]; drug-resistant strain CREC) [µg/mL] | MIC Shigella flexneri ATCC 12022 [6] [µg/mL] | Inhibition rate against Methicillin-sensitive Staphylococcus aureus (%) ([7]; topical formulation 0.2 mg/mL) | Inhibition rate against Methicillin-sensitive Staphylococcus aureus (%) ([7]; topical formulation 1 mg/mL) | Inhibition rate against Methicillin-sensitive Staphylococcus aureus (%) ([7]; topical formulation 5 mg/mL) | Inhibition rate against Methicillin-resistant Staphylococcus aureus (%) ([8]; topical formulation 0.2 mg/mL) | Inhibition rate against Methicillin-resistant Staphylococcus aureus (%) ([8]; topical formulation 1 mg/mL) | Inhibition rate against Methicillin-resistant Staphylococcus aureus (%) ([8]; topical formulation 5 mg/mL) | MIC CRKP ([1]; carbapenem-resistant (CRKP)) [µg/mL] | MIC CRPA ([2]; carbapenem-resistant (CRPA)) [µg/mL] | MIC VRE [3] [µg/mL] | MIC MRSA ([4]; Methicillin-resistant) [µg/mL] | MIC CREC ([5]; carbapenem-resistant (CREC)) [µg/mL] | MHC (minimum hemolytic concentration, lowest concentration causing 10% hemolysis) [9] [µg/mL] | remaining at 12 h, 0.91 mg/mL [10] [%] |
| --- | --- | --- | --- | --- | --- | --- | --- | --- | --- | --- | --- | --- | --- | --- | --- | --- | --- | --- | --- |
| Ac-RKLLXRLKXRK-PEG1000 [LV-28] (Ac-RKLL[2Nal]RLK[2Nal]RK-PEG1000) [polyethylene glycol 1000 conjugated to C-terminal; X=3-(2-naphthyl)-alanine] | 4 | 8 | 4 | 4 | 4 | 4 | 96.03 | 96.75 | 97.82 | 86.23 | 87.81 | 88.66 |  |  |  |  |  |  |  |
| Ac-RKLLXRLKXRK-PEG4000 [LV-30] (Ac-RKLL[2Nal]RLK[2Nal]RK-PEG4000) [polyethylene glycol 4000 conjugated to C-terminal; X=3-(2-naphthyl)-alanine] | 4 | 8 | 4 | 8 | 4 | 2 | 96.07 | 96.91 | 98.24 | 86.10 | 87.85 | 88.93 |  |  |  |  |  |  |  |
| Ac-RKLLXRLKXRK-PEG500 [LV-27] (Ac-RKLL[2Nal]RLK[2Nal]RK-PEG500) [polyethylene glycol 500 conjugated to C-terminal; X=3-(2-naphthyl)-alanine] | 4 | 4 | 8 | 8 | 4 | 2 | 97.01 | 98.74 | 97.65 | 86.50 | 89.66 | 88.02 |  |  |  |  |  |  |  |
| PEG2000-RKLLXRLKXRK-NH2 [LV-29] (PEG2000-RKLL[2Nal]RLK[2Nal]RK-NH2) [polyethylene glycol 2000 conjugated to N-terminal; X=3-(2-naphthyl)-alanine] | 8 | 4 | 4 | 4 | 8 | 4 | 96.49 | 97.11 | 98.65 | 86.34 | 87.29 | 88.16 |  |  |  |  |  |  |  |
| Ac-RKLLXRLKXRK-PEG200 [LV-26] (Ac-RKLL[2Nal]RLK[2Nal]RK-PEG200) [polyethylene glycol 200 conjugated to C-terminal; X=3-(2-naphthyl)-alanine] | 2 | 4 | 2 | 4 | 8 | 4 | 96.35 | 96.92 | 97.87 | 86.51 | 86.79 | 87.56 |  |  |  |  |  |  |  |
| CC(=O)N[C@H](CCCCN)C(=O)N[C@H](CCCCN)C(=O)N[C@H](CC(C)C)C(=O)N[C@H](CC(C)C)C(=O)N[C@H](Cc1ccc2ccccc2c1)C(=O)N[C@H](CCCNC(=N)N)C(=O)N[C@H](CC(C)C)C(=O)N[C@H](CCCCN)C(=O)N[C@H](Cc1ccc2ccccc2c1)C(=O)N[C@H](CCCNC(=N)N)C(=O)N[C@H](CCCCN)C(N)=O [LV-19] (Ac-[dK][dK][dL][dL][d2Nal][dR][dL][dK][d2Nal][dR][dK]-NH2) |  |  |  |  |  | 4 (≈ 2.47 µM) |  |  |  |  |  |  | 4 (≈ 2.47 µM) | 2 (≈ 1.24 µM) | 4 (≈ 2.47 µM) | 4 (≈ 2.47 µM) | 8 (≈ 4.94 µM) | >1000 | 98.1 |
| CC(=O)N[C@H](CCCNC(=N)N)C(=O)N[C@H](CCCCN)C(=O)N[C@H](CC(C)C)C(=O)N[C@H](CC(C)C)C(=O)N[C@H](Cc1ccc(C(F)(F)F)cc1)C(=O)N[C@H](CCCCN)C(=O)N[C@H](CC(C)C)C(=O)N[C@H](CCCCN)C(=O)N[C@H](Cc1ccc(C(F)(F)F)cc1)C(=O)N[C@H](CCCCN)C(=O)N[C@H](CCCNC(=N)N)C(N)=O [LV-9] (Ac-[dR][dK][dL][dL][dPhe(4-CF3)][dK][dL][dK][dPhe(4-CF3)][dK][dR]-NH2) |  |  |  |  |  | 2 (≈ 1.21 µM) |  |  |  |  |  |  | 8 (≈ 4.84 µM) | 4 (≈ 2.42 µM) | 4 (≈ 2.42 µM) | 2 (≈ 1.21 µM) | 2 (≈ 1.21 µM) | >1000 | 97.3 |
| CC(=O)N[C@H](CCCNC(=N)N)C(=O)N[C@H](CCCNC(=N)N)C(=O)N[C@H](CC(C)C)C(=O)N[C@H](CC(C)C)C(=O)N[C@H](Cc1ccc2ccccc2c1)C(=O)N[C@H](CCCCN)C(=O)N[C@H](CC(C)C)C(=O)N[C@H](CCCCN)C(=O)N[C@H](Cc1ccc2ccccc2c1)C(=O)N[C@H](CCCCN)C(=O)N[C@H](CCCNC(=N)N)C(N)=O [LV-24] (Ac-[dR][dR][dL][dL][d2Nal][dK][dL][dK][d2Nal][dK][dR]-NH2) |  |  |  |  |  | 2 (≈ 1.21 µM) |  |  |  |  |  |  | 4 (≈ 2.43 µM) | 8 (≈ 4.86 µM) | 2 (≈ 1.21 µM) | 4 (≈ 2.43 µM) | 8 (≈ 4.86 µM) | >1000 | 98.3 |
| CC(=O)N[C@H](CCCNC(=N)N)C(=O)N[C@H](CCCNC(=N)N)C(=O)N[C@H](CC(C)C)C(=O)N[C@H](CC(C)C)C(=O)N[C@H](Cc1ccc2ccccc2c1)C(=O)N[C@H](CCCNC(=N)N)C(=O)N[C@H](CC(C)C)C(=O)N[C@H](CCCNC(=N)N)C(=O)N[C@H](Cc1ccc2ccccc2c1)C(=O)N[C@H](CCCNC(=N)N)C(=O)N[C@H](CCCNC(=N)N)C(N)=O [LV-1] (Ac-[dR][dR][dL][dL][d2Nal][dR][dL][dR][d2Nal][dR][dR]-NH2) |  |  |  |  |  | 4 (≈ 2.31 µM) |  |  |  |  |  |  | 2 (≈ 1.16 µM) | 4 (≈ 2.31 µM) | 4 (≈ 2.31 µM) | 4 (≈ 2.31 µM) | 2 (≈ 1.16 µM) | >1000 | 98.5 |
| CC(=O)N[C@H](CCCCN)C(=O)N[C@H](CCCCN)C(=O)N[C@H](CC(C)C)C(=O)N[C@H](CC(C)C)C(=O)N[C@H](Cc1ccc(F)c(F)c1)C(=O)N[C@H](CCCNC(=N)N)C(=O)N[C@H](CC(C)C)C(=O)N[C@H](CCCCN)C(=O)N[C@H](Cc1ccc(F)c(F)c1)C(=O)N[C@H](CCCNC(=N)N)C(=O)N[C@H](CCCCN)C(N)=O [LV-25] (Ac-[dK][dK][dL][dL][dPhe(3,4-F2)][dR][dL][dK][dPhe(3,4-F2)][dR][dK]-NH2) |  |  |  |  |  | 2 (≈ 1.26 µM) |  |  |  |  |  |  | 8 (≈ 5.03 µM) | 4 (≈ 2.52 µM) | 8 (≈ 5.03 µM) | 2 (≈ 1.26 µM) | 4 (≈ 2.52 µM) | >1000 | 97.8 |
